Counter-ions that a name gives are not always drawn.
Tests used:
Assay type in all cases: cell-based
HCT-116 cells = assay: Cell growth, CellTiter-Glo Luminescent Cell Viability Assay, HCT-116; settings: Homo sapiens, 72 h incubation, read-out: IC50 HCT116
Description: (§1) CellTiter-Glo® Luminescent Cell Viability Assay (Promega) is a homogeneous method of determining the number of viable cells in culture based on quantitation of the present ATP, which indicates the presence of metabolically active cells. The homogeneous assay procedure involves addition of a single reagent (CellTiter-Glo®Reagent) directly to the cells, which leads to cell lysis and generation of a luminescent signal proportional to the amount of the ATP and the number of cells present in culture. The assay relies on the properties of a proprietary thermostable luciferase (Ultra-Glo® recombinant luciferase), which generates a luminescent signal.
(§2) K562, A549 and HCT-116 cells, in exponential growth, were incubated for 72 h with different concentrations of the inhibitors. After 72 h, a volume of CellTiter-Glo® Reagent equal to the volume of cell culture medium was added. The content was mixed for 2 min to induce cell lysis. The luminescence was recorded after further 10 min at RT in order to obtain a stabilized luminescent signal.
(§3) The IC50 was calculated using GraphPad Software.
(§4) IC50 results were allocated to one of 3 ranges as follows: Range A: IC50≦1.0 μM; Range B: from 1.0 to 3.0 μM; Range C: IC50≧3.0 μM.

K562 cells = assay: Cell growth, CellTiter-Glo Luminescent Cell Viability Assay, K562; settings: Homo sapiens, 72 h incubation
Description: as §1, §2, §3, §4

A549 cells = assay: Cell growth, CellTiter-Glo Luminescent Cell Viability Assay, A549; settings: Homo sapiens, 72 h incubation
Description: as §1, §2, §3, §4

For `O=C(/C=C/c1cccc(/C=C/C(=O)N2CCCC(c3ccccc3)C2)n1)NO` (racemic) [Example 25, (±)-(E)-N-Hydroxy-3-{6-[(E)-3-oxo-3-(3-phenyl-piperidin-1-yl)-propenyl]-pyridin-2-yl}-acrylamide hydrochloride], the IC50 (HCT-116 cells) was at most 1000 nM, the IC50 (K562 cells) was at most 1000 nM and the IC50 (A549 cells) was at most 1000 nM.

With `O=C(/C=C/c1cccc(/C=C/C(=O)N2CCNC(c3ccccc3)C2)n1)NO` (racemic) [Example 33, (±)-(E)-N-Hydroxy-3-{6-[(E)-3-oxo-3-(3-phenyl-piperazin-1-yl)-propenyl]-pyridin-2-yl}-acrylamide hydrochloride] the IC50 (HCT-116 cells) was 1000 to 3000 nM, the IC50 (K562 cells) was 1000 to 3000 nM and the IC50 (A549 cells) was at least 3000 nM.

Molecule `Cc1ccccc1C1CCCN(C(=O)/C=C/c2cccc(/C=C/C(=O)NO)n2)C1` (racemic) [Example 42, (±)-(E)-N-Hydroxy-3-{6-[(E)-3-oxo-3-(3-o-tolyl-piperidin-1-yl)-propenyl]-pyridin-2-yl}-acrylamide hydrochloride] has an IC50 (HCT-116 cells) of 1000 to 3000 nM, an IC50 (K562 cells) of at most 1000 nM and an IC50 (A549 cells) of at most 1000 nM.

Molecule `Cc1cccc(C2CCCN(C(=O)/C=C/c3cccc(/C=C/C(=O)NO)n3)C2)c1` (racemic) [Example 43, (±)-(E)-N-Hydroxy-3-{6-[(E)-3-oxo-3-(3-m-tolyl-piperidin-1-yl)-propenyl]-pyridin-2-yl}-acrylamide hydrochloride] has an IC50 (HCT-116 cells) of at most 1000 nM, an IC50 (K562 cells) of at most 1000 nM and an IC50 (A549 cells) of at most 1000 nM.

With `O=C(/C=C/c1cccc(/C=C/C(=O)N2CCCC(c3cccc4ccccc34)C2)n1)NO` (racemic) [Example 44, (±)-(E)-N-Hydroxy-3-{6-[(E)-3-(3-naphthalen-1-yl-piperidin-1-yl)-3-oxo-propenyl]-pyridin-2-yl}-acrylamide hydrochloride] the IC50 (HCT-116 cells) was at most 1000 nM, the IC50 (K562 cells) was at most 1000 nM and the IC50 (A549 cells) was 1000 to 3000 nM.

`Cc1ccc(C2CCCN(C(=O)/C=C/c3cccc(/C=C/C(=O)NO)n3)C2)cc1` (racemic) [Example 46, (±)-(E)-N-Hydroxy-3-{6-[(E)-3-oxo-3-(3-p-tolyl-piperidin-1-yl)-propenyl]-pyridin-2-yl}-acrylamide hydrochloride] gave an IC50 (HCT-116 cells) of at most 1000 nM, an IC50 (K562 cells) of at most 1000 nM and an IC50 (A549 cells) of 1000 to 3000 nM.

In the case of `O=C(/C=C/c1cccc(/C=C/C(=O)N2CCCC(c3ccc4ccccc4c3)C2)n1)NO` (racemic) [Example 47, (±)-(E)-N-Hydroxy-3-{6-[(E)-3-(3-naphthalen-2-yl-piperidin-1-yl)-3-oxo-propenyl]-pyridin-2-yl}-acrylamide hydrochloride], the IC50 (HCT-116 cells) is reported as at most 1000 nM, the IC50 (K562 cells) is reported as at most 1000 nM and the IC50 (A549 cells) is reported as at most 1000 nM.

With `O=C(/C=C/c1cccc(/C=C/C(=O)N2CCCC(c3ccc(F)cc3)C2)n1)NO` (racemic) [Example 48, (±)-(E)-3-(6-{(E)-3-[3-(4-Fluoro-phenyl)-piperidin-1-yl]-3-oxo-propenyl}-pyridin-2-yl)-N-hydroxy-acrylamide hydrochloride] the IC50 (HCT-116 cells) was at most 1000 nM, the IC50 (K562 cells) was at most 1000 nM and the IC50 (A549 cells) was 1000 to 3000 nM.

Molecule `O=C(/C=C/c1cccc(/C=C/C(=O)N2CCC(c3ccccc3)C2)n1)NO` (racemic) [Example 52, (±)-(E)-N-Hydroxy-3-{6-[(E)-3-oxo-3-(3-phenyl-pyrrolidin-1-yl)-propenyl]-pyridin-2-yl}-acrylamide hydrochloride] has an IC50 (HCT-116 cells) of 1000 to 3000 nM, an IC50 (K562 cells) of 1000 to 3000 nM and an IC50 (A549 cells) of at least 3000 nM.

For `O=C(/C=C/c1cccc(/C=C/C(=O)N2CCCCC2c2ccccc2)n1)NO` (racemic) [Example 53, (±)-(E)-N-Hydroxy-3-{6-[(E)-3-oxo-3-(2-phenyl-piperidin-1-yl)-propenyl]-pyridin-2-yl}-acrylamide hydrochloride], the IC50 (HCT-116 cells) was at most 1000 nM, the IC50 (K562 cells) was at most 1000 nM and the IC50 (A549 cells) was 1000 to 3000 nM.

`O=C(/C=C/c1cccc(/C=C/C(=O)N2CCCC(c3ccccc3)CC2)n1)NO` (racemic) [Example 54, (±)-(E)-N-Hydroxy-3-{6-[(E)-3-oxo-3-(4-phenyl-azepan-1-yl)-propenyl]-pyridin-2-yl}-acrylamide hydrochloride] was tested, and the IC50 (HCT-116 cells) was at most 1000 nM, the IC50 (K562 cells) was at most 1000 nM and the IC50 (A549 cells) was 1000 to 3000 nM.

With `CN1CCN(C(=O)/C=C/c2cccc(/C=C/C(=O)NO)n2)CC1c1ccccc1` (racemic) [Example 63, (±)-(E)-N-Hydroxy-3-{6-[(E)-3-(4-methyl-3-phenyl-piperazin-1-yl)-3-oxo-propenyl]-pyridin-2-yl}-acrylamide hydrochloride] the IC50 (HCT-116 cells) was at most 1000 nM, the IC50 (K562 cells) was at most 1000 nM and the IC50 (A549 cells) was 1000 to 3000 nM.

Molecule `CCN1CCN(C(=O)/C=C/c2cccc(/C=C/C(=O)NO)n2)CC1c1ccccc1` (racemic) [Example 64, (±)-(E)-3-{6-[(E)-3-(4-Ethyl-3-phenyl-piperazin-1-yl)-3-oxo-propenyl]-pyridin-2-yl}-N-hydroxy-acrylamide hydrochloride] has an IC50 (HCT-116 cells) of at most 1000 nM, an IC50 (K562 cells) of at most 1000 nM and an IC50 (A549 cells) of at most 1000 nM.

Work on `O=C(/C=C/c1cccc(/C=C/C(=O)N2CCN(Cc3ccccc3)C(c3ccccc3)C2)n1)NO` (racemic) [Example 65, (±)-(E)-3-{6-[(E)-3-(4-Benzyl-3-phenyl-piperazin-1-yl)-3-oxo-propenyl]-pyridin-2-yl}-N-hydroxy-acrylamide hydrochloride] yielded an IC50 (HCT-116 cells) of 1000 to 3000 nM, an IC50 (K562 cells) of 1000 to 3000 nM and an IC50 (A549 cells) of 1000 to 3000 nM.

In the case of `CC(=O)N1CCN(C(=O)/C=C/c2cccc(/C=C/C(=O)NO)n2)CC1c1ccccc1` (racemic) [Example 66, (±)-(E)-3-{6-[(E)-3-(4-Acetyl-3-phenyl-piperazin-1-yl)-3-oxo-propenyl]-pyridin-2-yl}-N-hydroxy-acrylamide hydrochloride], the IC50 (HCT-116 cells) is reported as at least 3000 nM, the IC50 (K562 cells) is reported as at least 3000 nM and the IC50 (A549 cells) is reported as at least 3000 nM.

With `COc1ccccc1C1CCCN(C(=O)/C=C/c2cccc(/C=C/C(=O)NO)n2)C1` (racemic) [Example 67, (±)-(E)-N-Hydroxy-3-(6-{(E)-3-[3-(2-methoxy-phenyl)-piperidin-1-yl]-3-oxo-propenyl}-pyridin-2-yl)-acrylamide hydrochloride] the IC50 (HCT-116 cells) was at most 1000 nM, the IC50 (K562 cells) was at most 1000 nM and the IC50 (A549 cells) was 1000 to 3000 nM.

For `COc1cccc(C2CCCN(C(=O)/C=C/c3cccc(/C=C/C(=O)NO)n3)C2)c1` (racemic) [Example 68, (±)-(E)-N-Hydroxy-3-(6-{(E)-3-[3-(3-methoxy-phenyl)-piperidin-1-yl]-3-oxo-propenyl}-pyridin-2-yl)-acrylamide hydrochloride], the IC50 (HCT-116 cells) was at most 1000 nM, the IC50 (K562 cells) was at most 1000 nM and the IC50 (A549 cells) was at most 1000 nM.

`COc1ccc(C2CCCN(C(=O)/C=C/c3cccc(/C=C/C(=O)NO)n3)C2)cc1` (racemic) [Example 69, (±)-(E)-N-Hydroxy-3-(6-{(E)-3-[3-(4-methoxy-phenyl)-piperidin-1-yl]-3-oxo-propenyl}-pyridin-2-yl)-acrylamide hydrochloride] gave an IC50 (HCT-116 cells) of at most 1000 nM, an IC50 (K562 cells) of at most 1000 nM and an IC50 (A549 cells) of at most 1000 nM.

`O=C(/C=C/c1cccc(/C=C/C(=O)N2CCCC(c3ccccc3C(F)(F)F)C2)n1)NO` (racemic) [Example 70, (±)-(E)-N-Hydroxy-3-(6-{(E)-3-oxo-3-[3-(2-trifluoromethyl-phenyl)-piperidin-1-yl]-propenyl}-pyridin-2-yl)-acrylamide hydrochloride] was tested, and the IC50 (HCT-116 cells) was at most 1000 nM, the IC50 (K562 cells) was at most 1000 nM and the IC50 (A549 cells) was at most 1000 nM.

Work on `O=C(/C=C/c1cccc(/C=C/C(=O)N2CCCC(c3cccc(C(F)(F)F)c3)C2)n1)NO` (racemic) [Example 71, (±)-(E)-N-Hydroxy-3-(6-{(E)-3-oxo-3-[3-(3-trifluoromethyl-phenyl)-piperidin-1-yl]-propenyl}-pyridin-2-yl)-acrylamide hydrochloride] yielded an IC50 (HCT-116 cells) of at most 1000 nM, an IC50 (K562 cells) of at most 1000 nM and an IC50 (A549 cells) of 1000 to 3000 nM.

`O=C(/C=C/c1cccc(/C=C/C(=O)N2CCCC(c3ccc(C(F)(F)F)cc3)C2)n1)NO` (racemic) [Example 72, (±)-(E)-N-Hydroxy-3-(6-{(E)-3-oxo-3-[3-(4-trifluoromethyl-phenyl)-piperidin-1-yl]-propenyl}-pyridin-2-yl)-acrylamide hydrochloride] showed an IC50 (HCT-116 cells) of 1000 to 3000 nM, an IC50 (K562 cells) of at most 1000 nM and an IC50 (A549 cells) of 1000 to 3000 nM.

In the case of `Cc1cccc(C2CCCN(C(=O)/C=C/c3cccc(/C=C/C(=O)NO)c3)C2)c1` (racemic) [Example 78, (±)-(E)-N-Hydroxy-3-{3-[(E)-3-oxo-3-(3-m-tolyl-piperidin-1-yl)-propenyl]-phenyl}-acrylamide], the IC50 (HCT-116 cells) is reported as at least 3000 nM, the IC50 (K562 cells) is reported as at least 3000 nM and the IC50 (A549 cells) is reported as at least 3000 nM.

`Cc1ccccc1C1CCCN(C(=O)/C=C/c2cccc(/C=C/C(=O)NO)c2)C1` (racemic) [Example 79, (±)-(E)-N-Hydroxy-3-{3-[(E)-3-oxo-3-(3-o-tolyl-piperidin-1-yl)-propenyl]-phenyl}-acrylamide] gave an IC50 (HCT-116 cells) of at least 3000 nM, an IC50 (K562 cells) of at least 3000 nM and an IC50 (A549 cells) of at least 3000 nM.

Work on `Cc1ccc(C2CCCN(C(=O)/C=C/c3cccc(/C=C/C(=O)NO)c3)C2)cc1` (racemic) [Example 80, (±)-(E)-N-Hydroxy-3-{3-[(E)-3-oxo-3-(3-p-tolyl-piperidin-1-yl)-propenyl]-phenyl}-acrylamide] yielded an IC50 (HCT-116 cells) of at least 3000 nM, an IC50 (K562 cells) of at least 3000 nM and an IC50 (A549 cells) of at least 3000 nM.

`O=C(/C=C/c1cccc(/C=C/C(=O)N2CCCC(c3ccccc3)C2)c1)NO` (racemic) [Example 83, (±)-(E)-N-Hydroxy-3-{3-[(E)-3-oxo-3-(3-phenyl-piperidin-1-yl)-propenyl]-phenyl}-acrylamide] was tested, and the IC50 (HCT-116 cells) was at least 3000 nM, the IC50 (K562 cells) was at least 3000 nM and the IC50 (A549 cells) was at least 3000 nM.
